In US20260158002A1, “APPLICATION OF COMPOSITION CONTAINING EDARAVONE AND DEXBORNEOL IN IMPROVING OR TREATING COGNITIVE IMPAIRMENT” (NEURODAWN PHARMACEUTICAL CO., LTD., priority 2021, published 2026):

Columns and labels:
5×FAD transgenic mice = experiment: AD pathology examination (immunohistochemical test) in 5×FAD transgenic mice; format: in vivo, mouse; details: 5×FAD mice; edaravone 6 mg/kg or composition 7.5 mg/kg i.p. once daily for 16 weeks
Experimental: In the experiment, the animals were divided into 4 groups. Administration was performed on the mice in each group from 8 weeks of age. After 16 weeks of continuous daily administration, water maze and Y maze behavioral tests were performed. After the behavioral tests were completed, the animals were sacrificed, and brain slice electrophysiology and AD pathology within the brain were tested, including the test of Aβ plaques, biomarkers such as GFAP and Iba-1, p-Tau, etc.
After the behavioral test of animals was completed, the mice were subjected to cardiac perfusion followed by brain removal, and the brain was fixed in 4% paraformaldehyde for 24 h, dehydrated with 30% sucrose, snap-frozen and embedded with an embedding medium, and sliced (thickness […]). The brain slices having the hippocampal region were selected, washed with PBS for 5 min×3 times, permeabilized with 0.2% Triton, washed with PBS for 7 min×3 times, and blocked with Blocking buffer (2.5% BSA, 0.3% Triton) for 1 h. The brain slices were placed in a primary antibody overnight at 4° C. On the second day, the brain slices in the primary antibody were taken out, washed with PBS for 5 min×3 times, placed in a second antibody, and incubated for 1 h at room temperature in the dark. The brain slices were taken out and washed with PBS for 5 min×3 times. An anti-fluorescence quencher containing DAPI was added dropwise, and the slices were mounted.
Data were expressed as Mean±SEM. Statistical analysis between groups was performed using Prism software (GraphPad, USA): One-way or Two-way ANOVA was used for comparison of two or more groups, and then Fisher's LSD test was selected for analysis. P<0.05 indicated significant difference. ##p<0.01, ###p<0.001, ####p<0.0001, comparison with WT group; *p<0.05, **p<0.01, […], ****p<0.0001, comparison with model group; & p<0.05, &&p<0.01, &&&&p<0.0001, comparison between two groups indicated.

[1] = test system: mouse model of AlCl3/D-galactose-induced cognitive impairment; details: intraperitoneal for 15 consecutive days; cited from earlier work

Compound: CC1=NN(c2ccccc2)C(=O)C1 [edaravone, 3-methyl-1-phenyl-2-pyrazolin-5-one]
- astrogliosis within the brain, vs solvent control group (5×FAD transgenic mice): could significantly decrease
- hippocampal tau protein hyperphosphorylation, vs solvent control group (5×FAD transgenic mice): could significantly decrease
- microgliosis within the brain, vs solvent control group (5×FAD transgenic mice): could significantly decrease
- β-amyloid plaques within the brain, vs solvent control group (5×FAD transgenic mice): could significantly decrease
- cognitive function in water maze test and step-down test [1]: significantly improves the cognitive function as tested by water maze test and step-down test
